Source: US10660967B2, “Curcumin conjugates and methods of use thereof” (priority 2016, dated 2020)
Like-named read-outs stand apart in the source and are kept apart here.

Legend:
[1] = tested on: Salmonella typhi ATCC19430; experiment: Antimicrobial MIC, agar dilution; assay type: cell-based; settings: Salmonella enterica, read-out: Minimum inhibitory concentration (MIC)
[2] = tested on: Staphylococcus aureus ATCC25923; experiment: Antimicrobial MIC, agar dilution
[3] = tested on: PHA-stimulated splenocytes; experiment: Proliferative response of PHA-stimulated splenocytes (MTT assay); assay type: cell-based; settings: PHA 5 μg/ml, 72 hr; compounds at 5 μM (method says 10 μM); ratio of O.D. versus vehicle control
Method in brief: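 Freshly prepared splenocytes (1×10^6 cells/well) were cultured for 72 h at 37° C with compound at 10 μM final, with or without PHA (5 μg/ml). Viability was read by MTT (4 h), with absorbance at 570 nm against 690 nm reference. Stimulation index is the OD ratio of treated versus vehicle cultures.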

[4] = tested on: gastric mucosa; experiment: Ulcerogenic liability (ulcer index); assay type: in vivo, albino mice
Description: The ulcerogenic liability was investigated in albino mice using the standard method. […] The animals were fasted 18 h before drug administration. […] The control group animals were given saline solution only with few drops of Tween 80. […] The gastric mucosa was examined with a magnifying lens (10×) for the presence of lesions and erosions.
1. percentage incidence of ulcer divided by 10;
2. average number of ulcers per stomach; and
3. average severity of ulcers;

[5] = tested on: HepG2 (hepatocellular) carcinoma cell line; experiment: Anti-tumor properties, MTT; assay type: cell-based; settings: Homo sapiens; for activity at 100 µM: read-out: Percentage growth of tumor cell lines treated with the tested compounds (±SD)
Description: (§1) Anti-tumor properties of curcumin conjugates were evaluated. The synthesized curcumin-amino acid conjugates and curcumin itself were screened for their antitumor properties against human tumor cell lines utilizing HepG2 (hepatocellular), MCF7 (breast), and HCT116 (colon) carcinoma cell lines by the standard mitochondrial dependent reduction of yellow MTT [3-(4,5-dimethylthiazol-2-yl)-2,5-diphenyl-tetrazolium bromide] to purple formazan technique. Cancer cells were obtained from the Egyptian Company for Production of Vaccines, Sera and Drugs (VACSERA), Cairo, Egypt. Media, chemicals and supplies for the bio-assay were obtained from Biowest, Gibco and Lonza Companies. Cells were suspended in RPMI-1640 medium for HepG2, DMEMF12 for MCF-7, and DMEM for HCT116 in addition to 1% antibiotic-antimycotic mixture (10 […] potassium penicillin, 10 […] streptomycin sulfate and […] amphotericin B), 10% fetal bovine serum and 1% L-glutamine at 37° C., under 5% CO2 and 95% humidity. Cells were seeded at a concentration of 10×10^3 cells per well in fresh complete growth medium in 96-well tissue culture microtiter plates for 24 h. Media was aspirated, 180 μL fresh medium (without serum) were added and cells were incubated with different concentrations of sample to give a final concentration of 100 μM. 0.5% DMSO was used as a negative control and doxorubicin was used as a positive control (standard reference). Triplicate wells were prepared for each individual tested compound/dose. After 72 h of incubation, the medium was aspirated, 40 μL MTT salt (2.5 mg ml^1) were added to each well and incubated for an additional 4 h at 37° C. To stop the reaction and dissolve the formed crystals, 200 μL of 10% sodium dodecyl sulfate (SDS) in deionized water were added to each well and incubated overnight at 37° C. The absorbance was then measured at 595 nm with a reference wavelength of 620 nm. Data were collected as mean values for experiments performed in triplicates for each compound which had been measured by MTT assay.
(§2) The percentage of cell survival was calculated according to equation (4): […]
(§3) The IC50 was determined using Graph-Pad PRISM version-5 software. Statistical calculations for determination of the mean and standard deviation (SD) values were determined by SPSS 16 software.

[6] = tested on: HCT116 (colon) carcinoma cell line; experiment: Anti-tumor properties, MTT; assay type: cell-based; settings: Homo sapiens, read-out: Percentage growth of tumor cell lines treated with the tested compounds (±SD)
Description: as §1, §2, §3

[7] = tested on: MCF7 (breast) carcinoma cell line; experiment: Anti-tumor properties, MTT; assay type: cell-based; settings: Homo sapiens; for activity at 100 µM: read-out: Percentage growth of tumor cell lines treated with the tested compounds (±SD)
Description: as §1, §2, §3

[8] = tested on: Candida albicans (local isolate); experiment: Antimicrobial MIC, agar dilution; settings: Candida albicans, read-out: Minimum inhibitory concentration (MIC)
[9] = tested on: MCF-7 cells; experiment: Effect on doxorubicin induced cytotoxicity (MTT); settings: for Percentage of viable cells MCF-7 (average ± SD): 10 μM DOX in combination with 100 μM curcumin derivative; for viability at 100 µM: Homo sapiens, MCF7, 48 h
Description: The effects of curcumin conjugates on doxorubicin induced cytotoxicity were evaluated. In order to further examine whether curcumin derivatives can enhance conventional chemotherapeutic agents, MCF-7 cells were treated with 100 μM curcumin derivatives alone or in combination with 10 μM doxorubicin (DOX) for 48 hr. Control cultures received only medium, vehicle (DMSO), or vehicle+DOX. The percentage of viable cells was determined by MTT assay according to equation (5): […]

[10] = tested on: Pseudomonas aeruginosa ATCC27853; experiment: Antimicrobial MIC, agar dilution
[11] = tested on: lipopolysaccharide-stimulated peritoneal macrophages; experiment: Production of nitric oxide by lipopolysaccharide-stimulated peritoneal macrophages (Greiss reagent); assay type: cell-based; set-up: Potency (%): % inhibition of nitric oxide production relative to lipopolysaccharide-stimulated macrophages: concentration or dose not given beside the values; settings: LPS-stimulated peritoneal macrophages; for Nitric oxide (nitrite) concentration, μM (average ± SD): 24 h, nitrite by Greiss reagent
Method in brief: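 Macrophages in nitrite-free medium with 0.1% BSA were stimulated with LPS at 0.5–10 ng/ml, some wells also receiving epinephrine, norepinephrine or dopamine at […], for 24 h at 37° C. Nitrite in supernatants was measured with Greiss reagent, 15 min at room temperature, absorbance 532 nm.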

[12] = tested on: Streptococcus pyogenes ATCC19615; experiment: Antimicrobial MIC, agar dilution
[13] = ATCC25923, 18 h, read-out: Minimum inhibitory concentration (MIC)
[14] = ATCC25923, read-out: Minimum inhibitory concentration (MIC)
[15] = orally, three successive days, 10 mg/kg indomethacin mol equivalent
[16] = orally, three successive days, 10 mg/kg indomethacin mol equivalent, 6 animals per group
[17] = sum of the three values, orally, three successive days, 10 mg/kg indomethacin mol equivalent
[18] = read-out: Percentage of viable cells MCF-7 (average ± SD)
[19] = ATCC27853, 18 h, read-out: Minimum inhibitory concentration (MIC)
[20] = ATCC27853, read-out: Minimum inhibitory concentration (MIC)
[21] = ATCC19615, 18 h, read-out: Minimum inhibitory concentration (MIC)
[22] = ATCC19615, read-out: Minimum inhibitory concentration (MIC)
[23] = both, albino, mouse, in vivo, po, 10 mg/kg, 3 days

SMILES: COc1cc(/C=C/C(=O)CC(=O)/C=C/c2ccc(OC(=O)[C@H](CCSC)NC(=O)OCc3ccccc3)c(OC)c2)ccc1OC(=O)[C@H](CCSC)NC(=O)OCc1ccccc1 [Cbz-Met-Cur, ((1E,6E)-3,5-dioxohepta-1,6-diene-1,7-diyl)bis(2-methoxy-4,1-phenylene) (2S,2′S)-bis(2-(((benzyloxy)carbonyl)amino)-4-(methylthio)butanoate)]
- MIC ([1]; 18 h): 0.125 µg/mL
- MIC [1]: 0.139 µM
- MIC [2, 13]: 0.125 µg/mL
- MIC [2, 14]: 0.139 µM
- Stimulation Index (average ± SD) [3]: 1.22 ± 0.29
- % Incidence of ulcer divided by 10 [4, 15]: 3.33
- Average of ulcer number [4, 15]: 0.33
- Average severity of ulcer [4, 15]: 0.33
- Number of animals with ulcer [4, 16]: 2/6
- Ulcer index [4, 17]: 3.99
- activity at 100 µM ([5]; HepG2, 100 μM, 72 h): 85.4 ± 2.4%
- activity at 100 µM ([6]; HCT-116, HCT116, 100 μM, 72 h): 85.6 ± 2.4%
- activity at 100 µM ([7]; MCF7, 100 μM, 72 h): 71%
- MIC ([8]; 18 h): 2 µg/mL
- MIC [8]: 2.23 µM
- Percentage of viable cells MCF-7 (average ± SD) ([9]; 48 hr): 49.74 ± 0.33
- viability at 100 µM [9, 18]: 96.3 ± 3.61%
- MIC [10, 19]: 0.125 µg/mL
- MIC [10, 20]: 0.139 µM
- Potency (%): % inhibition of nitric oxide production relative to lipopolysaccharide-stimulated macrophages [11]: 44.44%
- Nitric oxide (nitrite) concentration, μM (average ± SD) [11]: 15.17 ± 2.30 µM
- MIC [12, 21]: 0.125 µg/mL
- MIC [12, 22]: 0.139 µM

SMILES: COc1cc(/C=C/C(=O)CC(=O)/C=C/c2ccc(O)c(OC)c2)ccc1O [Curcumin, (1E,6E)-1,7-bis(4-hydroxy-3-methoxyphenyl)hepta-1,6-diene-3,5-dione]
- MIC ([1]; 18 h): 0.125 µg/mL
- MIC [1]: 0.339 µM
- MIC [2, 13]: 0.125 µg/mL
- MIC [2, 14]: 0.339 µM
- Stimulation Index (average ± SD) [3]: 1.52 ± 0.10
- % Incidence of ulcer divided by 10 [4, 23]: 3.33
- Average of ulcer number [4, 23]: 0.33
- Average severity of ulcer [4, 23]: 0.33
- Number of animals with ulcer [4, 23]: 2/6
- Ulcer index [4, 23]: 3.99
- IC50 ([5]; HepG2, 72 h): 38 µM
- activity at 100 µM ([5]; HepG2, 72 h): 0.4%
- activity at 100 µM ([6]; HCT-116, 72 h): 2.4 ± 3.4%
- IC50 ([7]; MCF7, 72 h): 16 µM
- activity at 100 µM ([7]; MCF7, 72 h): 4.6 ± 0.2%
- MIC ([8]; 18 h): 0.125 µg/mL
- MIC [8]: 0.339 µM
- viability at 100 µM ([9]; read-out: Percentage of viable cells MCF-7 (average ± SD), 0 μM DOX, 100 μM curcumin derivative alone, 48 hr): 10.8 ± 4.7%
- viability at 100 µM ([9]; read-out: Percentage of viable cells MCF-7 (average ± SD), 10 μM DOX in combination with 100 μM curcumin derivative, 48 hr): 3.16 ± 1.62%
- MIC [10, 19]: 0.125 µg/mL
- MIC [10, 20]: 0.339 µM
- Potency (%): % inhibition of nitric oxide production relative to lipopolysaccharide-stimulated macrophages [11]: 37.11%
- Nitric oxide (nitrite) concentration, μM (average ± SD) [11]: 17.18 ± 0.65 µM
- MIC [12, 21]: 0.125 µg/mL
- MIC [12, 22]: 0.339 µM

SMILES: COc1cc(/C=C/C(=O)CC(=O)/C=C/c2ccc(OC(=O)CNC(=O)OCC3c4ccccc4-c4ccccc43)c(OC)c2)ccc1OC(=O)CNC(=O)OCC1c2ccccc2-c2ccccc21 [Fmoc-Gly-Cur, ((1E,6E)-3,5-dioxohepta-1,6-diene-1,7-diyl)bis(2-methoxy-4,1-phenylene) bis(2-((((9H-fluoren-9-yl)methoxy)carbonyl)amino)acetate)]
- MIC ([1]; 18 h): 1 µg/mL
- MIC [1]: 1.08 µM
- MIC [2, 13]: 1 µg/mL
- MIC [2, 14]: 1.08 µM
- Stimulation Index (average ± SD) [3]: 1.76 ± 0.20
- % Incidence of ulcer divided by 10 [4, 15]: 0
- Average of ulcer number [4, 15]: 0
- Average severity of ulcer [4, 15]: 0
- Number of animals with ulcer [4, 16]: 0/6
- Ulcer index [4, 17]: 0
- activity at 100 µM ([5]; HepG2, 100 μM, 72 h): 82.1 ± 7%
- activity at 100 µM ([6]; HCT-116, HCT116, 100 μM, 72 h): 95.8 ± 6.7%
- activity at 100 µM ([7]; MCF7, 100 μM, 72 h): 87 ± 1.5%
- MIC ([8]; 18 h): 2 µg/mL
- MIC [8]: 2.16 µM
- Percentage of viable cells MCF-7 (average ± SD) ([9]; 48 hr): 30.35
- viability at 100 µM [9, 18]: 98.4 ± 1.46%
- MIC [10, 19]: 1 µg/mL
- MIC [10, 20]: 1.08 µM
- Potency (%): % inhibition of nitric oxide production relative to lipopolysaccharide-stimulated macrophages [11]: 31.43%
- Nitric oxide (nitrite) concentration, μM (average ± SD) [11]: 18.73 ± 1.29 µM
- MIC [12, 21]: 1 µg/mL
- MIC [12, 22]: 1.08 µM

SMILES: COc1cc(/C=C/C(=O)CC(=O)/C=C/c2ccc(OC(=O)[C@@H](NC(=O)OCC3c4ccccc4-c4ccccc43)C(C)C)c(OC)c2)ccc1OC(=O)[C@@H](NC(=O)OCC1c2ccccc2-c2ccccc21)C(C)C [Fmoc-Val-Cur, ((1E,6E)-3,5-dioxohepta-1,6-diene-1,7-diyl)bis(2-methoxy-4,1-phenylene) (2S,2′S)-bis(2-((((9H-fluoren-9-yl)methoxy)carbonyl)amino)-3-methylbutanoate)]
- MIC ([1]; 18 h): 0.5 µg/mL
- MIC [1]: 0.494 µM
- MIC [2, 13]: 0.25 µg/mL
- MIC [2, 14]: 0.247 µM
- Stimulation Index (average ± SD) [3]: 2.55 ± 0.13
- activity at 100 µM ([5]; HepG2, 100 μM, 72 h): 116 ± 3.3%
- activity at 100 µM ([6]; HCT-116, HCT116, 100 μM, 72 h): 81.8 ± 5.8%
- activity at 100 µM ([7]; MCF7, 100 μM, 72 h): 83.2 ± 0.8%
- MIC ([8]; 18 h): 0.5 µg/mL
- MIC [8]: 0.494 µM
- Percentage of viable cells MCF-7 (average ± SD) ([9]; 48 hr): 25.15
- viability at 100 µM [9, 18]: 100 ± 1.95%
- MIC [10, 19]: 0.5 µg/mL
- MIC [10, 20]: 0.494 µM
- Potency (%): % inhibition of nitric oxide production relative to lipopolysaccharide-stimulated macrophages [11]: 12.46%
- Nitric oxide (nitrite) concentration, μM (average ± SD) [11]: 23.91 ± 0.87 µM
- MIC [12, 21]: 0.5 µg/mL
- MIC [12, 22]: 0.494 µM
